From patent US20050154042A1, “N-alkyl pyrroles as HMG-CoA reductase inhibitors” (priority 2003, published 2005)

SMILES | melting point
CC(C)n1c(CC[C@@H](O)C[C@@H](O)CC(=O)[O-])c(-c2ccc(F)cc2)c(-c2ccccc2)c1C(=O)NCc1ccccc1.[Na+] [Example 114, (3R,5R)-7-[5-Benzylcarbamoyl-3-(4-fluoro-phenyl)-1-isopropyl-4-phenyl-1H-pyrrol-2-yl]-3,5-dihydroxy-heptanoic Acid Sodium Salt] | 186 to 189 °C
CC(C)n1c(CC[C@@H](O)C[C@@H](O)CC(=O)[O-])c(-c2ccc(F)cc2)c(-c2ccccc2)c1C(=O)N[C@@H](C)c1ccccc1.[Na+] [Example 115, (3R,5R)-7-[3-(4-Fluoro-phenyl)-1-isopropyl-4-phenyl-5-((S)-1-phenyl-ethylcarbamoyl)-1H-pyrrol-2-yl]-3,5-dihydroxy-heptanoic Acid Sodium Salt] | 227 to 229 °C (dec.)
COC(=O)c1ccc(NC(=O)c2c(-c3ccccc3)c(-c3ccc(F)cc3)c(CC[C@@H](O)C[C@@H](O)CC(=O)[O-])n2C(C)C)cc1.[Na+] [Example 116, (3R,5R)-4-{[5-(6-Carboxy-3,5-dihydroxy-hexyl)-4-(4-fluoro-phenyl)-1-isopropyl-3-phenyl-1H-pyrrole-2-carbonyl]-amino}-benzoic Acid Methyl Ester Sodium Salt] | 188 to 191 °C (dec.)
COC(=O)c1ccc(NC(=O)c2c(-c3ccccc3)c(-c3ccc(F)cc3)c(CC[C@@H](O)C[C@@H](O)CC(=O)[O-])n2C(C)C)nc1.[Na+] [Example 118, (3R,5R)-6-{[5-(6-Carboxy-3,5-dihydroxy-hexyl)-4-(4-fluoro-phenyl)-1-isopropyl-3-phenyl-1H-pyrrole-2-carbonyl]-amino}-nicotinic Acid Methyl Ester Sodium Salt] | 188 to 190 °C (dec.)
CC(C)n1c(CC[C@@H](O)C[C@@H](O)CC(=O)[O-])c(-c2ccc(F)cc2)c(-c2ccccc2)c1C(=O)Nc1ccccn1.[Na+] [Example 119, (3R,5R)-7-[3-(4-Fluoro-phenyl)-1-isopropyl-4-phenyl-5-(pyridin-2-ylcarbamoyl)-1 H-pyrrol-2-yl]-3,5-dihydroxy-heptanoic Acid Sodium Salt] | 226 to 228 °C (dec.)
CC(C)n1c(CC[C@@H](O)C[C@@H](O)CC(=O)[O-])c(-c2ccc(F)cc2)c(-c2ccc(F)cc2)c1C(=O)Nc1ccccn1.[Na+] [Example 120, (3R,5R)-7-[3,4-Bis-(4-fluoro-phenyl)-1-isopropyl-5-(pyridin-2-ylcarbamoyl)-1H-pyrrol-2-yl]-3,5-dihydroxy-heptanoic Acid Sodium Salt] | 217 to 219 °C (dec.)
COC(=O)c1ccc(NC(=O)c2c(-c3ccc(F)cc3)c(-c3ccc(F)cc3)c(CC[C@@H](O)C[C@@H](O)CC(=O)[O-])n2C(C)C)nc1.[Na+] [Example 121, (3R,5R)-6-{[5-(6-Carboxy-3,5-dihydroxy-hexyl)-3,4-bis-(4-fluoro-phenyl)-1-isopropyl-1H-pyrrole-2-carbonyl]-amino}-nicotinic Acid Methyl Ester Sodium Salt] | 178 to 181 °C (dec.)
CC(C)n1c(CC[C@@H](O)C[C@@H](O)CC(=O)[O-])c(-c2ccc(F)cc2)c(-c2ccccc2)c1C(=O)N(c1ccccn1)c1ccccn1.[Na+] [Example 123, (3R,5R)-7-[5-(Di-pyridin-2-yl-carbamoyl)-3-(4-fluoro-phenyl)-1-isopropyl-4-phenyl-1H-pyrrol-2-yl]-3,5-dihydroxy-heptanoic Acid Sodium Salt] | 223 to 225 °C (dec.)
CC(C)n1c(CC[C@@H]2C[C@@H](O)CC(=O)O2)c(-c2ccc(F)cc2)c(-c2ccccc2)c1C(=O)Nc1ccc(C(=O)O)cn1 [Example 124, (2R,4R)-6-({4-(4-Fluoro-phenyl)-5-[2-(4-hydroxy-6-oxo-tetrahydro-pyran-2-yl)-ethyl]-1-isopropyl-3-phenyl-1H-pyrrole-2-carbonyl}-amino)-nicotinic Acid] | 172 to 174 °C (dec.)
